The source of these data is ChEMBL document CHEMBL1177745, “Isolation, characterization, and bioactivity of cyclotides from the Micronesian plant Psychotria leptothyrsa” (J Nat Prod, 2010).

Each structure is given as a SMILES string.

This assay relates to U-937/GTB. As to the kind of experiment: Cytotoxicity against human U937/GTB cells by fluorometric microculture cytotoxicity assay. It is filed as functional, cell-based.

Broadly, the IC50 is the concentration needed to halve the response being measured. The low end stands for greater potency in that assay, the high end for weaker potency in that assay. Compound `CC[C@H](C)[C@@H]1NC(=O)CNC(=O)[C@@H](CC(N)=O)NC(=O)[C@H](Cc2ccccc2)NC(=O)[C@H](Cc2ccc(O)cc2)NC(=O)[C@@H]2CSSC[C@@H]3NC(=O)CNC(=O)[C@H](CC(C)C)NC(=O)[C@H](Cc4ccccc4)NC(=O)[C@H](C(C)C)NC(=O)[C@H]4CSSC[C@H](NC(=O)[C@H](CO)NC(=O)[C@H](CSSC[C@H](NC(=O)[C@H](C)NC1=O)C(=O)NCC(=O)N[C@@H](CCC(=O)O)C(=O)N[C@@H](CO)C(=O)N4)NC(=O)CNC(=O)[C@@H]1CCCN1C(=O)[C@H]([C@@H](C)CC)NC(=O)[C@H](Cc1ccccc1)NC3=O)C(=O)N[C@@H](CCCCN)C(=O)N[C@@H](CO)C(=O)N[C@@H](CCCCN)C(=O)N[C@@H](C(C)C)C(=O)N2` [PSYLE A] displayed an IC50 of 26 µM.
Take `CC[C@@H](C)[C@@H]1NC(=O)[C@@H]2CSSC[C@@H]3NC(=O)[C@H](C(C)C)NC(=O)[C@H](CCCCN)NC(=O)[C@H](CC(N)=O)NC(=O)[C@@H](CCCCN)NC(=O)[C@@H]4CSSC[C@H](NC(=O)[C@H](CO)NC(=O)[C@H](CCC(=O)O)NC(=O)CNC(=O)[C@H](CSSC[C@H](NC(=O)CNC(=O)[C@H](CC(C)C)NC(=O)[C@H](C(C)C)NC(=O)[C@H](CO)NC(=O)[C@H](CO)NC1=O)C(=O)N[C@@H](CO)C(=O)N4)NC(=O)[C@@H]1CCCN1C(=O)[C@H]([C@H](C)CC)NC(=O)[C@H](C(C)C)NC(=O)CNC(=O)[C@H](CC(=O)O)NC(=O)[C@H](CCCNC(=N)N)NC(=O)[C@H](Cc1ccc(O)cc1)NC3=O)C(=O)N[C@@H](C(C)C)C(=O)N[C@@H](Cc1ccccc1)C(=O)N[C@@H]([C@@H](C)CC)C(=O)N1CCC[C@H]1C(=O)N2`: the half-maximal inhibitory concentration (IC50) stood at 3.5 µM.
